Test results published in patent US12357699B2, “B-cell immunotherapy in cancer treatment” (AKAMARA THERAPEUTICS, INC., priority 2018, dated 2025).

Key:
4T1 cells [1] = experiment: 4T1 tumor growth in B cell-deficient mice (Jh−/−); assay type: in vivo; conditions: 4T1 tumors
Method: (§1) 4T1 cells were subcutaneously implanted in the mice strains mentioned and when tumors reached an average volume of 100 mm^3, they were divided into two groups. One group was kept as control and the other treated with IO-125 and tumor volume in all the animals were recorded.

IGKC [2] = experiment: Semi-quantitative PCR of immune activating and suppressive genes in 4T1 tumors; assay type: in vivo, Balb/c mice; conditions: 4T1 tumors harvested after one cycle, 20 mgPt/kg
From the text: (§2) The efficacy of IO-125 was examined in the murine triple negative breast cancer (TNBC) tumor model (4T1). 4T1 cells were subcutaneously implanted in Balb/c mice to generate tumors and treated with IO-125 or saline (control), when tumors reached an average volume of 100 mm^3. The dose administered for IO-125 was 20 mgPt/kg, with a regimen of b5d. Following one cycle of treatment, tumors were harvested and a portion of the tumor from control and IO-125 treated group was used for total RNA isolation and subsequent evaluation of immune activating and immune suppressive genes (Denkert et al., Clin Oncol. 2015; 33(9):983-91) by semi-quantitative PCR. IO-125 treatment was continued for an additional cycle, with recording of tumor volume and examination of tumors for regression.

LLC cells = experiment: Combination of PD1 immune checkpoint inhibitor and IO-125 in immunocompetent murine NSCLC tumor model (LLC cells s.c. in C57/BL6 mice); assay type: in vivo; conditions: syngeneic lung cancer (LLC) bearing animals, two cycles
Method: The combination of a PD1 immune checkpoint inhibitor and IO-125 was evaluated in an immunocompetent murine NSCLS tumor model. The murine NSCLC tumor model was generated by subcutaneously implanting LLC cells in C57/BL6 mice. Treatment with saline (control), IO-125, immune check point inhibitor (anti-PD1 antibody, Biolegend) or combinatorial therapy (IO-125 and anti-PD1 antibody) was initiated when average tumor volume in the animals reached 100 mm^3, through i.v. administration of compounds. A schematic representation of the treatment regimen is depicted in FIG. 1A.
(§3) In contrast, 45% of the animals underwent complete tumor regression when the two drugs were combined. These observations illustrate that combinations of IO-125 with immune checkpoint inhibitor(s) augment tumor regression as compared to monotherapies.

[3] = system: genes involved in B cell differentiation and TLR activation; experiment: Relative mRNA expression in splenic B cells isolated from treated mice; assay type: in vivo, Balb/c mice; conditions: tumor bearing treated mice (Group 1)
Method: Splenic B cells were isolated from Group 1 and Group 2 mice, described in Example 3. Spleen was harvested from mice (n=3) and minced into small pieces in RPMI-1640 basal media. The pieces were placed on top of a 40 mesh membrane and crushed with the back of a syringe and the single cell suspension was collected onto a 50 mL tube. The single cell suspension was washed twice with PBS to remove debris by centrifuging at 2000 rpm. Splenocytes were counted using haemocytometer and 100 million splenocytes were resuspended in 1 mL of Isolation buffer (2% FBS, […] in DPBS) and transferred to a 5 ml Polystyrene tube. The B cells were isolated from splenocytes using the EasySep Stem Cell B cell isolation kit as per manufacturers protocol. One part of the isolated B cells was used for RNA isolation, followed by relative mRNA expression levels of genes involved in B cell differentiation and TLR activation were evaluated; while the second part was used for immunodetection of specific proteins, following the manufacturer's protocol.

4T1 cells [4] = experiment: Murine triple negative breast cancer (TNBC) tumor model (4T1 s.c. in Balb/c mice); assay type: in vivo; conditions: 4T1 tumor-bearing Balb/c mice, 20 mgPt/kg, two cycles
From the text: as §2

IGKC [5] = experiment: Immune biomarker expression (molecular immunophenotyping, immunohistochemistry of FFPE sections) in LLC tumors; assay type: in vivo, C57/BL6 mice
From the text: as §3
Subsequently, tumors were harvested and a portion fixed in formalin.

4T1 cells [6] = experiment: Tumor rechallenge (immune memory study), re-implantation of 4T1 cells; assay type: in vivo, Balb/c mice
Method: 4T1 cells were subcutaneously implanted in Balb/c mice to generate tumors. When tumors reached an average volume of 100 mm^3, they were treated with IO-125 (Group 1). Two groups of Balb/c mice (non-tumor bearing) were either treated with IO-125 or saline (designated Group 2 and 3 respectively; FIG. 3A). Immune memory cells are poised to rapidly expand and induce effector functions upon recurrence, while existing in a functionally quiescent state. To verify this hypothesis, we examined immune memory in IO-125 treated tumors.

[7] = system: B cell differentiation and TLR activation markers; experiment: Relative mRNA expression in naive splenic B cells cultured with conditioned media (TCM) from treated 4T1 cells; assay type: cell-based, mice; conditions: splenic B cells 48 hours in TCM from 4T1 cells treated 6 hours plus 42 hours
Method: 4T1 cells were seeded in cell culture dishes in IMDM media containing 10% FBS. The cells were treated with blank supramolecule (Vehicle) and IO-125 when they reached 60% confluence. Following a transient treatment of 6 hours, the media was removed and supplemented with fresh culture media and cells were incubated for additional 42 hours. Following treatment, the conditioned media from 4T1 cells (TCM) was collected for each treatment and filtered through 0.2 micron PES filters to obtain TCM free of cell debris. The harvested TCMs were used immediately for conditioning of B cells, isolated from naïve mice splenocytes using the EasySep Stem Cell B cell isolation kit as per manufacturers protocol. The B cells were incubated with conditioned media and harvested after 48 hours of incubation. RNA was isolated from the B cells and used for relative mRNA expression level evaluation of genes involved in B cell differentiation and TLR activation.

4T1 cells [8] = experiment: 4T1 tumor growth in mice lacking functional B cells and T cells (SCID); assay type: in vivo; conditions: 4T1 tumors
Method: as §1

`CC(C)CCCC(C)C1CCC2C3CC=C4CC(OCCN(CC(=O)[O-])CC(=O)[O][Pt+]5[NH]C6CCCCC6[NH]5)CCC4(C)C3CCC12C` (stereo not drawn) [IO-125] was tested, and the “tumor ablation in Jh−/− mice (FIG. 4C)” value (4T1 cells [1]) was “Tumor ablation did not occur”, the “IGKC mRNA levels in tumors (FIG. 2B)” value (IGKC [2]) was “significant increase in IGKC mRNA levels” and the “tumor growth curves (FIG. 2C)” value (LLC cells) was “significant tumor growth inhibition but no regression”. For the same compound, the “expression of TLRs and CD80 in splenic B cells” value [3] was “elevated expression of TLRs and CD80”, the “IGKC mRNA levels in splenic B cells (FIG. 5B)” value ([3]; normalized to Group 2) was “significant increase in IGKC mRNA levels” and the “tumor growth curve (FIG. 2A)” value (4T1 cells [4]) was “complete regression of tumors”. For the same compound, the “IGKC levels (FIG. 2D)” value (IGKC [5]; LLC tumors of treated animals, relative expression of immune biomarkers) was “increase in IGKC levels”, the “immunodetection of B220 and IGKC in tumor sections (FIG. 2E)” value (IGKC [5]; treated versus control tumors) was “significantly increased expression of IGKC” and the “tumor growth after re-implantation of cancer cells, Group 1” value (4T1 cells [6]; animals that had previously undergone tumor regression with treatment) was “no tumor growth was observed”. For the same compound, the “tumor growth after implantation of 4T1 cells, Group 2” value (4T1 cells [6]; non-tumor bearing Balb/c mice pre-treated, compared with saline treated mice (Group 3)) was “led to the growth of tumors”, the “B cell differentiation markers and TLR activation markers, relative mRNA (FIG. 4B)” value [7] was “substantially increased” and the “tumor ablation in SCID mice (FIG. 4D)” value (4T1 cells [8]) was “Tumor ablation did not occur”.
